Among the data in patent US11834450B2, “Compounds having ((3-nitrophenyl)sulfonyl)acetamide as BCL-2 inhibitors” (Eil Therapeutics, Inc., priority 2021, dated 2023) are IC50, CC50 and EC50 values, retold here.

For one series, the target named is T1, BCL-2 (Homo sapiens, UniProt P10415).
T1 construct: purchased BPS Bioscience #50222
In words: BCL-2 TR-FRET Assay (primary PPI inhibition). The conditions noted are these: 60 min incubation; read-out: BCL2 (IC50 code, BCL-2 TR-FRET). Type of series: binding.

The subject of a further series is MOLT-4 cells. In words: Cell viability assay MOLT-4 (CellTiter-Glo). Type of series: cell-based. The settings on record: Homo sapiens, 72 h; MOLT-4 cells, 3 days, CellTiter-Glo; read-out: MOLT-4 (CC50 code). The essentials: (§1)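 Cells were seeded at 2000/well (HEK293, in DMEM, pre-incubated a day) or 4000/well (other lines, in RPMI-1640). Serially diluted compound was added and plates incubated 3 days at 37 °C, with viability read by CellTiter-Glo luminescence.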

Series [1] can be described thus: Cell viability assay HEK293 (CellTiter-Glo). Type of series: cell-based. The conditions noted are these: human, HEK293 cells, read-out: HEK293 (CC50 code). The essentials: as §1
In series [2] the test system is caspase-3 and -7 activities in RS4-11 cells. In words: Cas-3/7 activation (Caspase-Glo 3/7) in RS4-11 cells. The settings on record: Homo sapiens, 3.5 h at 37° C. and 30 min at r.t., read-out: Cas-3/7 (EC50 code). Type of series: cell-based. The gist of the method:
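RS4-11 cells were exposed to graded compound concentrations for 3.5 h at 37° C/5% CO2, then 30 min at room temperature. Caspase-3/7 activity was measured by luminescence after 30 min with a DEVD luminogenic substrate reagent.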

In a further series the test system is RS4-11 cells. In words: Cell viability assay RS4-11 (CellTiter-Glo). Type of series: cell-based. The conditions noted are these: Homo sapiens, 72 h; RS4-11 cells, 3 days, CellTiter-Glo; read-out: RS4-11 (CC50 code). The gist of the method:
as §1

A further series concerns the target T2, BCL-XL (Homo sapiens, UniProt Q07817).
T2 construct: purchased BPS Bioscience #50223
In words: BCL-XL TR-FRET Assay (primary PPI inhibition). It is filed as binding. The settings on record: 60 min incubation; read-out: BCLxL (IC50 code, BCL-XL TR-FRET). The essentials:
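10.5 ng His-tagged BCL-XL incubated 60 min with test compound, BCL-XL peptide ligand (1:80), Tb-labelled anti-His donor and dye-labelled acceptor (each 1:100). Displacement read as TR-FRET, excitation 340 nm, emission 620 and 665 nm, 60 μs delay, 500 μs integration.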

T2 sequence (Q07817 whole entry): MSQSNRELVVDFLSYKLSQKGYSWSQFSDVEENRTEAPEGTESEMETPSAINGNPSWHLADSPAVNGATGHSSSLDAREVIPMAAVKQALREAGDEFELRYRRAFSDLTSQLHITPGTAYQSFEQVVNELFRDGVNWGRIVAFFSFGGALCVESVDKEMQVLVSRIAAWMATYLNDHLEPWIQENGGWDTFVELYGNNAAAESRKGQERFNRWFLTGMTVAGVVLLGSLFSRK
T1 sequence (P10415 whole entry): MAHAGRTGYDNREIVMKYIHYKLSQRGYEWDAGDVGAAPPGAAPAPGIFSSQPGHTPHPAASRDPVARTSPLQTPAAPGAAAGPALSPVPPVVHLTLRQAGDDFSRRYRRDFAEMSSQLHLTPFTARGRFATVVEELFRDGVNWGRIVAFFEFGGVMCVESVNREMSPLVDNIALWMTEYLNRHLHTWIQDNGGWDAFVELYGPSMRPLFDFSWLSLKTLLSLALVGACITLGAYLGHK

As for `CC1=C(C)C[C@H](c2ccc(Cl)cc2)[C@@H](CN2CCN(c3ccc(C(=O)NS(=O)(=O)c4ccc(NCC5CCOCC5)c([N+](=O)[O-])c4)c(Oc4cnc5[nH]ccc5c4)c3)CC2)C1` [Compound 75, 4-[4-[[(1S,6S)-6-(4-chlorophenyl)-3,4-dimethyl-cyclohex-3-en-1-yl]methyl]piperazin-1-yl]-N-[3-nitro-4-(tetrahydropyran-4-ylmethylamino)phenyl]sulfonyl-2-(1H-pyrrolo[2,3-b]pyridin-5-yloxy)benzamide], the IC50 on BCL-2 is over 50 nM; at BCL-XL, at most 2000 nM. Besides, the CC50 is 2000 to 10000 nM in the series with MOLT-4 cells and over 200 nM in the series on RS4-11 cells. The CC50 at 3 days in series [1] was over 25000 nM. Besides, the EC50 in series [2] was over 250 nM.

Take `CC(C)C(=O)N1Cc2cc(F)ccc2C[C@H]1CN1CCN(c2ccc(C(=O)NS(=O)(=O)c3ccc(NCC4CCOCC4)c([N+](=O)[O-])c3)c(Oc3cnc4[nH]ccc4c3)c2)CC1` [Compound 48, 4-[4-[[(3S)-7-fluoro-2-(2-methylpropanoyl)-3,4-dihydro-1H-isoquinolin-3-yl]methyl]piperazin-1-yl]-N-[3-nitro-4-(tetrahydropyran-4-ylmethylamino)phenyl]sulfonyl-2-(1H-pyrrolo[2,3-b]pyridin-5-yloxy)benzamide]: the IC50 was over 50 nM at BCL-2 and over 4000 nM at BCL-XL. For the same molecule, the CC50 in the series on MOLT-4 cells was over 10000 nM; in the series on RS4-11 cells it was over 200 nM. Moreover, the CC50 at 3 days in series [1] was over 25000 nM. For the same molecule, in series [2], the EC50 was over 250 nM.

Take `O=C(NS(=O)(=O)c1ccc(NCC2CCOCC2)c([N+](=O)[O-])c1)c1ccc(N2CCN(CC3Cc4ccccc4CN3C(=O)c3cccs3)CC2)cc1Oc1cnc2[nH]ccc2c1` (stereo not drawn) [Compound 6, N-[3-nitro-4-(tetrahydropyran-4-ylmethylamino)phenyl]sulfonyl-2-(1H-pyrrolo[2,3-b]pyridin-5-yloxy)-4-[4-[[2-(thiophene-2-carbonyl)-3,4-dihydro-1H-isoquinolin-3-yl]methyl]piperazin-1-yl]benzamide]: the IC50 at BCL-2 was over 50 nM; on BCL-XL, at most 2000 nM. Besides, the CC50 in the series on MOLT-4 cells is 2000 to 10000 nM; in the series on RS4-11 cells, over 200 nM. Besides, the CC50 at 3 days in series [1] was over 25000 nM. Also, in series [2], the EC50 was over 250 nM.

As for `O=C(NS(=O)(=O)c1ccc(NCC2CCOCC2)c([N+](=O)[O-])c1)c1ccc(N2CCC(Cn3c(-c4ccc(Cl)cc4)nc4cccnc43)CC2)cc1Oc1cnc2[nH]ccc2c1` [Compound 51, 4-[4-[[2-(4-chlorophenyl)imidazo[4,5-b]pyridin-3-yl]methyl]-1-piperidyl]-N-[3-nitro-4-(tetrahydropyran-4-ylmethylamino)phenyl]sulfonyl-2-(1H-pyrrolo[2,3-b]pyridin-5-yloxy)benzamide], the concentration for half-maximal inhibition (IC50) on BCL-2 is 10 to 50 nM; on BCL-XL it was over 4000 nM. Also, the CC50 in the series on MOLT-4 cells was 2000 to 10000 nM; in the series on RS4-11 cells it was over 200 nM. Also, the CC50 at 3 days in series [1] is over 25000 nM. For the same molecule, the EC50 in series [2] is over 250 nM.

As for `CC1(O)CC[C@H](CN2CCN(c3ccc(C(=O)NS(=O)(=O)c4ccc(NCC5CCOCC5)c([N+](=O)[O-])c4)c(Oc4cnc5[nH]ccc5c4)c3)CC2)[C@@H](c2ccc(Cl)cc2)C1` (stereo partly drawn) [Compound 28, 4-[4-[[(1S,2S)-2-(4-chlorophenyl)-4-hydroxy-4-methyl-cyclohexyl]methyl]piperazin-1-yl]-N-[3-nitro-4-(tetrahydropyran-4-ylmethylamino)phenyl]sulfonyl-2-(1H-pyrrolo[2,3-b]pyridin-5-yloxy)benzamide], the IC50 at BCL-2 is under 5 nM; on BCL-XL it was at most 2000 nM. The CC50 with MOLT-4 cells lay within 2000 to 10000 nM; in the series on RS4-11 cells, 100 to 200 nM. Further, the CC50 at 3 days in series [1] is over 25000 nM. Further, the EC50 in series [2] lay in the range of 100 to 250 nM.

On to `O=C(NS(=O)(=O)c1ccc(NCC2CCOCC2)c([N+](=O)[O-])c1)c1ccc(N2CCN(C[C@@H]3Cc4cc(F)ccc4CN3C(=O)C3CC3)CC2)cc1Oc1cnc2[nH]ccc2c1` [Compound 49, 4-[4-[[(3S)-2-(cyclopropanecarbonyl)-6-fluoro-3,4-dihydro-1H-isoquinolin-3-yl]methyl]piperazin-1-yl]-N-[3-nitro-4-(tetrahydropyran-4-ylmethylamino)phenyl]sulfonyl-2-(1H-pyrrolo[2,3-b]pyridin-5-yloxy)benzamide], for which the IC50 on BCL-2 is 10 to 50 nM; at BCL-XL, over 4000 nM. The CC50 with MOLT-4 cells is 2000 to 10000 nM; with RS4-11 cells, over 200 nM. Moreover, the CC50 at 3 days in series [1] was over 25000 nM. The EC50 in series [2] is over 250 nM.

Consider `O=C(NS(=O)(=O)c1ccc(NCC2CCOCC2)c([N+](=O)[O-])c1)c1ccc(N2CCN(CC(O)(c3ccccc3)c3ccc(F)c(F)c3)CC2)cc1Oc1cnc2[nH]ccc2c1` (stereo not drawn) [Compound 11, 4-[4-[2-(3,4-difluorophenyl)-2-hydroxy-2-phenyl-ethyl]piperazin-1-yl]-N-[3-nitro-4-(tetrahydropyran-4-ylmethylamino)phenyl]sulfonyl-2-(1H-pyrrolo[2,3-b]pyridin-5-yloxy)benzamide], for which the IC50 at BCL-2 was over 50 nM; at BCL-XL, over 4000 nM. The values for the CC50 in the series with MOLT-4 cells and in the series with RS4-11 cells were 2000 to 10000 nM and over 200 nM, respectively. Further, the CC50 at 3 days in series [1] is over 25000 nM. For the same molecule, the EC50 in series [2] was over 250 nM.

As to `CC(C)C(=O)N1C[C@@H](CN2CCN(c3ccc(C(=O)NS(=O)(=O)c4ccc(NCC5CCOCC5)c([N+](=O)[O-])c4)c(Oc4cnc5[nH]ccc5c4)c3)CC2)[C@H](c2ccc(Cl)cc2)C1` [Compound 58, 4-[4-[[(3R,4R)-4-(4-chlorophenyl)-1-(2-methylpropanoyl)pyrrolidin-3-yl]methyl]piperazin-1-yl]-N-[3-nitro-4-(tetrahydropyran-4-ylmethylamino)phenyl]sulfonyl-2-(1H-pyrrolo[2,3-b]pyridin-5-yloxy)benzamide], the IC50 on BCL-2 is 10 to 50 nM; at BCL-XL it was over 4000 nM. Further, the values for the CC50 in the series with MOLT-4 cells and in the series with RS4-11 cells were 2000 to 10000 nM and over 200 nM, respectively. In series [1], the half-maximal cytotoxic concentration (CC50) at 3 days is over 25000 nM. In addition, the EC50 in series [2] was over 250 nM.

Take `CC1=CC[C@@H](CN2CCN(c3ccc(C(=O)NS(=O)(=O)c4ccc(NCC5CCOCC5)c([N+](=O)[O-])c4)c(Oc4cnc5[nH]ccc5c4)c3)CC2)[C@H](c2ccc(Cl)cc2)C1` [Compound 54, 4-[4-[[(1R,6R)-6-(4-chlorophenyl)-4-methyl-cyclohex-3-en-1-yl]methyl]piperazin-1-yl]-N-[3-nitro-4-(tetrahydropyran-4-ylmethylamino)phenyl]sulfonyl-2-(1H-pyrrolo[2,3-b]pyridin-5-yloxy)benzamide]: the results for the IC50 on BCL-2 and at BCL-XL were 10 to 50 nM and 2000 to 4000 nM, respectively. Further, the CC50 in the series on MOLT-4 cells lay within 2000 to 10000 nM; with RS4-11 cells, 100 to 200 nM. Further, the CC50 at 3 days in series [1] was 10000 to 25000 nM. Also, the EC50 in series [2] was 100 to 250 nM.

For `O=C(NS(=O)(=O)c1ccc(NCC2CCOCC2)c([N+](=O)[O-])c1)c1ccc(N2CCN(C[C@@H]3Cc4ccccc4CN3C(=O)C3CC3)CC2)cc1Oc1cnc2[nH]ccc2c1` [Compound 5, 4-[4-[[(3S)-2-(cyclopropanecarbonyl)-3,4-dihydro-1H-isoquinolin-3-yl]methyl]piperazin-1-yl]-N-[3-nitro-4-(tetrahydropyran-4-ylmethylamino)phenyl]sulfonyl-2-(1H-pyrrolo[2,3-b]pyridin-5-yloxy)benzamide], the IC50 on BCL-2 is 10 to 50 nM; at BCL-XL, at most 2000 nM. The figures for the CC50 in the series on MOLT-4 cells and in the series on RS4-11 cells were 2000 to 10000 nM and over 200 nM, respectively. Further, the 50% cytotoxic concentration (CC50) at 3 days in series [1] was over 25000 nM. Besides, the EC50 in series [2] is over 250 nM.
